# What was measured:
# [1] = biological target: T1, rM3Ds (Rattus norvegicus, UniProt P08483, A177S/A238G/A489L/DEL261-437/DEL441-478/E258S/I253V/I483M/INS256[…]/K178L/K182A/K255R/K484R/K486H/L173F/L482A/M480V/R171S/R176Q/R179M/S481M/T174R/T181R/T257A/Y148C); assay: Slice whole-cell recordings of rM3Ds-transduced MSNs; assay type: cell-based, mice; conditions: AAV8R12-G88P7-rM3Ds-2A-EYFP
# T1 construct: rM3Ds; 2A-EYFP (C); host or cells: AAV8R12-transduced striatal D1-MSNs of mice and cynomolgus macaques (in vivo and acute slices)
# From the text: (§1) Mice from different groups were anesthetized with […] isoflurane, and then decapitated. The brain was quickly extracted and placed in ice-cold N-methyl-D-glucamine (NMDG) cutting solution containing (in mM): 92 NMDG, 2.5 KCl, 25 NaHCO3, 1.25 NaH2PO4, 4.5 D-Glucose, 20 HEPES, 5 L-ascorbic acid, 3 Na-pyruvate, 2 Thiourea, 10 MgSO4, 0.5 CaCl2). The pH was adjusted to 7.2±0.1 using HCl and the osmolarity was adjusted to 305±5 mosmol/L using NMDG. The solution was bubbled with 95% O2/5% CO2 prior to use. Coronal striatum slices were cut in 250-[…]m thickness with a vibratome slicer (Leica, VT1200 S), and then incubated in artificial cerebrospinal fluid (aCSF) saturated with 95% O2/5% CO2 for at least 45 min at 37° C. before recording. The aCSF contains (in mM) 125 NaCl, 1.25 KCl, 25 NaHCO3, 1.25 KH2PO4, 25 D-Glucose, 2 CaCl2) and 1 MgCl2, supplemented with 2 mM Na-pyruvate, 3 mM Myo-inositol and 0.4 mM L-ascorbic acid.
# (§2) The acute striatum slice was transferred to the recording chamber with a constant perfusion of oxygenized aCSF at the rate of 3 ml/min. Neurons were visualized using an upright microscope (Olympus, BX-51) with a 40×water immersion objective at room temperature (˜25° C.). […] Neurons were quickly visualized under fluorescence microscope and then patch clamp were achieved under infrared light illumination and CCD camera. […]
# [2] = biological target: hM3Dq (Homo sapiens, UniProt P20309, A239G/Y149C); assay: Slice whole-cell recordings of hM3Dq-transduced MSNs; assay type: cell-based, mice; design: 2A-EYFP (C); host or cells: AAV8R12-transduced EYFP+ striatal MSNs in acute mouse brain slices; conditions: AAV8R12-G88P3-HA-hM3Dq-2A-EYFP; CNO 10 μM; basal firing rate and resting membrane potential unaffected
# From the text: as §1, §2
# T1 sequence (P08483 other isoform, or with tags, fused parts or gaps with the stated changes): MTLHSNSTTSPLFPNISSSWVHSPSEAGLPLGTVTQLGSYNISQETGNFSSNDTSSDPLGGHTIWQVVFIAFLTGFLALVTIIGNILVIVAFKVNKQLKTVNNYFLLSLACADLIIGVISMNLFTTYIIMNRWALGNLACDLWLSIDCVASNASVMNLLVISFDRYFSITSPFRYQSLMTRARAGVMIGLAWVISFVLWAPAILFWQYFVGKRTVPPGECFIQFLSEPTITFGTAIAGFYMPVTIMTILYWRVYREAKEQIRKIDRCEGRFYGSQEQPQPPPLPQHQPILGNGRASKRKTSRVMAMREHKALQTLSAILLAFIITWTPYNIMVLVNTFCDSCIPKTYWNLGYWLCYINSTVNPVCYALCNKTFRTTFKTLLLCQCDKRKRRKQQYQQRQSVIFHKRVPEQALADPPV
# Chain of hM3Dq (P20309 whole entry Y149C/A239G): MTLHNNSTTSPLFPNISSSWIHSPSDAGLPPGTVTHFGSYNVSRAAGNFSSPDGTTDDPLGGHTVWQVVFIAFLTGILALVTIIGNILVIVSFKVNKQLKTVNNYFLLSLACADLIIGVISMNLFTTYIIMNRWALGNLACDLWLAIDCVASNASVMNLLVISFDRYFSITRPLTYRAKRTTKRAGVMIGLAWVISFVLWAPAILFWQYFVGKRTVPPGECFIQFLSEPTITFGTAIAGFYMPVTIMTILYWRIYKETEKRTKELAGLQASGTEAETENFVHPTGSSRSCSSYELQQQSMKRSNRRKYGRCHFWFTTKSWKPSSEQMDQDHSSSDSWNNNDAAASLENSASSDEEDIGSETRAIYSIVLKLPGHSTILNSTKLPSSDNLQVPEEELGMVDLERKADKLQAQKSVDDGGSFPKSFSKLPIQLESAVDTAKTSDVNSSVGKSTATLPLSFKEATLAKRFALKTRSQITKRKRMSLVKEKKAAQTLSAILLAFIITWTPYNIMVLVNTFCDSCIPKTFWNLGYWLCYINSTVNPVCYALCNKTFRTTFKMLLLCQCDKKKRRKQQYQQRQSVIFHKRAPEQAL
smiles,measurement,setting,value
"C[N+]1([O-])CCN(C2=Nc3cc(Cl)ccc3Nc3ccccc32)CC1 [CNO, clozapine N-oxide]",excitability of D1-MSNs in parkinsonian mice,"[1]; 6-OHDA mice, not with AAV8R12-G88P7-EYFP",increased excitability
same,excitability of labeled striatal MSNs,"[1]; CNO 10 μM, no effect on basal firing rate or resting membrane potential",enhancement in the excitability
same,excitability of transduced MSNs,[2],augmentation of excitability

# Reference: US20250381307A1, “RETRO-AAV AND USE IN TREATING NEURODEGENERATIVE DISEASES” (priority 2023, published 2025)
